Measurements from PubChem BioAssay (NCI).
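Five compound concentrations were applied to cells in 96-well plates for 48 hours; endpoints were derived by simple linear interpolation of the resulting dose-response curve. GI50 is the concentration that inhibits growth by half. TGI marks complete inhibition of growth.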

Assays:
Experiment in all cases: NCI anticancer screen, dose series, 48 h
786-0 renal = test system: 786-0 renal
A498 renal = test system: A498 renal
A549 NSCLC = test system: A549 NSCLC
ACHN renal = test system: ACHN renal
BT-549 breast = test system: BT-549 breast
CCRF-CEM leukemia = test system: CCRF-CEM leukemia
COLO 205 colon = test system: COLO 205 colon
DU-145 prostate = test system: DU-145 prostate
EKVX NSCLC = test system: EKVX NSCLC
HCC-2998 colon = test system: HCC-2998 colon
HCT-116 colon = test system: HCT-116 colon
HCT-15 colon = test system: HCT-15 colon
HL-60(TB) leukemia = test system: HL-60(TB) leukemia
HOP-62 NSCLC = test system: HOP-62 NSCLC
HOP-92 NSCLC = test system: HOP-92 NSCLC
HS 578T breast = test system: HS 578T breast
HT29 colon = test system: HT29 colon
IGROV1 ovarian = test system: IGROV1 ovarian
K-562 leukemia = test system: K-562 leukemia
KM12 colon = test system: KM12 colon
LOX IMVI melanoma = test system: LOX IMVI melanoma
M14 melanoma = test system: M14 melanoma
MALME-3M melanoma = test system: MALME-3M melanoma
MCF7 breast = test system: MCF7 breast
MDA-MB-231 breast = test system: MDA-MB-231 breast
MDA-MB-435 = test system: MDA-MB-435
MOLT-4 leukemia = test system: MOLT-4 leukemia
NCI-H226 lung = test system: NCI-H226 lung
NCI-H23 lung = test system: NCI-H23 lung
NCI-H460 lung = test system: NCI-H460 lung
NCI-H522 lung = test system: NCI-H522 lung
NCI/ADR-RES ovarian = test system: NCI/ADR-RES ovarian
OVCAR-3 ovarian = test system: OVCAR-3 ovarian
OVCAR-4 ovarian = test system: OVCAR-4 ovarian
OVCAR-5 ovarian = test system: OVCAR-5 ovarian
OVCAR-8 ovarian = test system: OVCAR-8 ovarian
PC-3 prostate = test system: PC-3 prostate
RPMI-8226 leukemia = test system: RPMI-8226 leukemia
RXF 393 renal = test system: RXF 393 renal
SF-268 CNS = test system: SF-268 CNS
SF-295 CNS = test system: SF-295 CNS
SF-539 CNS = test system: SF-539 CNS
SK-MEL-2 melanoma = test system: SK-MEL-2 melanoma
SK-MEL-28 melanoma = test system: SK-MEL-28 melanoma
SK-MEL-5 melanoma = test system: SK-MEL-5 melanoma
SK-OV-3 ovarian = test system: SK-OV-3 ovarian
SN12C renal = test system: SN12C renal
SNB-19 CNS = test system: SNB-19 CNS
SNB-75 CNS = test system: SNB-75 CNS
SR leukemia = test system: SR leukemia
SW-620 colon = test system: SW-620 colon
T-47D breast = test system: T-47D breast
TK-10 renal = test system: TK-10 renal
U251 CNS = test system: U251 CNS
UACC-257 melanoma = test system: UACC-257 melanoma
UACC-62 melanoma = test system: UACC-62 melanoma
UO-31 renal = test system: UO-31 renal

**Q.** With `COc1cc(NC(=O)c2cc(OC)c3ccn(C)c3c2)cc2c1C[C@]1(C)CC[C@@H](O)C(C)(C)[C@H]1O2` as the compound, how does the GI50 (786-0 renal) read?
**A.** 1.29 µM

**Q.** What about the TGI (786-0 renal) of the same compound?
**A.** 4.08 µM

**Q.** What about the GI50 (A498 renal) of the same compound?
**A.** 2.85 µM

**Q.** What about the TGI (A498 renal) of the same compound?
**A.** 7.15 µM

**Q.** What about the GI50 (A549 NSCLC) of the same compound?
**A.** 10.3 µM

**Q.** And the TGI (A549 NSCLC)?
**A.** > 100 µM

**Q.** And the GI50 (ACHN renal)?
**A.** 5.31 µM

**Q.** What about the TGI (ACHN renal) of the same compound?
**A.** > 100 µM

**Q.** What about the GI50 (BT-549 breast) of the same compound?
**A.** 2.98 µM

**Q.** And the TGI (BT-549 breast)?
**A.** > 100 µM

**Q.** What about the GI50 (CCRF-CEM leukemia) of the same compound?
**A.** 3.75 µM

**Q.** And the TGI (CCRF-CEM leukemia)?
**A.** > 100 µM

**Q.** And the GI50 (COLO 205 colon)?
**A.** 6.12 µM

**Q.** And the TGI (COLO 205 colon)?
**A.** 51.5 µM

**Q.** And the GI50 (DU-145 prostate)?
**A.** 9.08 µM

**Q.** What about the TGI (DU-145 prostate) of the same compound?
**A.** > 100 µM

**Q.** What about the GI50 (EKVX NSCLC) of the same compound?
**A.** 11.3 µM

**Q.** And the TGI (EKVX NSCLC)?
**A.** > 100 µM

**Q.** And the GI50 (HCC-2998 colon)?
**A.** 13.4 µM

**Q.** What about the TGI (HCC-2998 colon) of the same compound?
**A.** > 100 µM

**Q.** What about the GI50 (HCT-116 colon) of the same compound?
**A.** 4.02 µM

**Q.** What about the TGI (HCT-116 colon) of the same compound?
**A.** > 100 µM

**Q.** And the GI50 (HCT-15 colon)?
**A.** 5.13 µM

**Q.** What about the TGI (HCT-15 colon) of the same compound?
**A.** > 100 µM

**Q.** What about the GI50 (HL-60(TB) leukemia) of the same compound?
**A.** 3.49 µM

**Q.** What about the TGI (HL-60(TB) leukemia) of the same compound?
**A.** 14.7 µM

**Q.** And the GI50 (HOP-62 NSCLC)?
**A.** 8.78 µM

**Q.** What about the TGI (HOP-62 NSCLC) of the same compound?
**A.** > 100 µM

**Q.** And the GI50 (HOP-92 NSCLC)?
**A.** 4.11 µM

**Q.** What about the TGI (HOP-92 NSCLC) of the same compound?
**A.** 32.3 µM

**Q.** What about the GI50 (HS 578T breast) of the same compound?
**A.** 2.33 µM

**Q.** What about the TGI (HS 578T breast) of the same compound?
**A.** 9.34 µM

**Q.** And the GI50 (HT29 colon)?
**A.** 7.24 µM

**Q.** And the TGI (HT29 colon)?
**A.** > 100 µM

**Q.** And the GI50 (IGROV1 ovarian)?
**A.** 21.2 µM

**Q.** And the TGI (IGROV1 ovarian)?
**A.** > 100 µM

**Q.** What about the GI50 (K-562 leukemia) of the same compound?
**A.** 3.82 µM

**Q.** And the TGI (K-562 leukemia)?
**A.** 39.3 µM

**Q.** And the GI50 (KM12 colon)?
**A.** 9.92 µM

**Q.** What about the TGI (KM12 colon) of the same compound?
**A.** > 100 µM

**Q.** And the GI50 (LOX IMVI melanoma)?
**A.** 4.08 µM

**Q.** What about the TGI (LOX IMVI melanoma) of the same compound?
**A.** 19 µM

**Q.** What about the GI50 (M14 melanoma) of the same compound?
**A.** 2.91 µM

**Q.** And the TGI (M14 melanoma)?
**A.** 14 µM

**Q.** And the GI50 (MALME-3M melanoma)?
**A.** 6.22 µM

**Q.** What about the TGI (MALME-3M melanoma) of the same compound?
**A.** 70.5 µM

**Q.** What about the GI50 (MCF7 breast) of the same compound?
**A.** 4.68 µM

**Q.** And the TGI (MCF7 breast)?
**A.** 65.9 µM

**Q.** And the GI50 (MDA-MB-231 breast)?
**A.** 7.73 µM

**Q.** What about the TGI (MDA-MB-231 breast) of the same compound?
**A.** 41.8 µM

**Q.** What about the GI50 (MDA-MB-435) of the same compound?
**A.** 9.08 µM

**Q.** What about the TGI (MDA-MB-435) of the same compound?
**A.** 43.6 µM

**Q.** And the GI50 (MOLT-4 leukemia)?
**A.** 2.98 µM

**Q.** What about the TGI (MOLT-4 leukemia) of the same compound?
**A.** 15 µM

**Q.** What about the GI50 (NCI-H226 lung) of the same compound?
**A.** 26.5 µM

**Q.** What about the TGI (NCI-H226 lung) of the same compound?
**A.** > 100 µM

**Q.** And the GI50 (NCI-H23 lung)?
**A.** 17.3 µM

**Q.** And the TGI (NCI-H23 lung)?
**A.** > 100 µM

**Q.** And the GI50 (NCI-H460 lung)?
**A.** 5.24 µM

**Q.** What about the TGI (NCI-H460 lung) of the same compound?
**A.** > 100 µM

**Q.** And the GI50 (NCI-H522 lung)?
**A.** 20.6 µM

**Q.** What about the TGI (NCI-H522 lung) of the same compound?
**A.** > 100 µM

**Q.** And the GI50 (NCI/ADR-RES ovarian)?
**A.** 29.3 µM

**Q.** What about the TGI (NCI/ADR-RES ovarian) of the same compound?
**A.** > 100 µM

**Q.** And the GI50 (OVCAR-3 ovarian)?
**A.** 12.6 µM

**Q.** And the TGI (OVCAR-3 ovarian)?
**A.** > 100 µM

**Q.** What about the GI50 (OVCAR-4 ovarian) of the same compound?
**A.** 37.6 µM

**Q.** What about the TGI (OVCAR-4 ovarian) of the same compound?
**A.** > 100 µM

**Q.** What about the GI50 (OVCAR-5 ovarian) of the same compound?
**A.** 27.3 µM

**Q.** And the TGI (OVCAR-5 ovarian)?
**A.** > 100 µM

**Q.** And the GI50 (OVCAR-8 ovarian)?
**A.** 26 µM

**Q.** What about the TGI (OVCAR-8 ovarian) of the same compound?
**A.** > 100 µM

**Q.** What about the GI50 (PC-3 prostate) of the same compound?
**A.** 6.17 µM

**Q.** What about the TGI (PC-3 prostate) of the same compound?
**A.** > 100 µM

**Q.** And the GI50 (RPMI-8226 leukemia)?
**A.** 1.35 µM

**Q.** And the TGI (RPMI-8226 leukemia)?
**A.** 6.9 µM

**Q.** What about the GI50 (RXF 393 renal) of the same compound?
**A.** 0.759 µM

**Q.** And the TGI (RXF 393 renal)?
**A.** 4.28 µM

**Q.** And the GI50 (SF-268 CNS)?
**A.** 9.09 µM

**Q.** What about the TGI (SF-268 CNS) of the same compound?
**A.** > 100 µM

**Q.** What about the GI50 (SF-295 CNS) of the same compound?
**A.** 1.01 µM

**Q.** And the TGI (SF-295 CNS)?
**A.** 2.95 µM

**Q.** What about the GI50 (SF-539 CNS) of the same compound?
**A.** 1.37 µM

**Q.** And the TGI (SF-539 CNS)?
**A.** 18.8 µM

**Q.** And the GI50 (SK-MEL-2 melanoma)?
**A.** 6.1 µM

**Q.** What about the TGI (SK-MEL-2 melanoma) of the same compound?
**A.** 64.6 µM

**Q.** And the GI50 (SK-MEL-28 melanoma)?
**A.** 5.29 µM

**Q.** And the TGI (SK-MEL-28 melanoma)?
**A.** > 100 µM

**Q.** What about the GI50 (SK-MEL-5 melanoma) of the same compound?
**A.** 2.87 µM

**Q.** What about the TGI (SK-MEL-5 melanoma) of the same compound?
**A.** 9.08 µM

**Q.** And the GI50 (SK-OV-3 ovarian)?
**A.** 6.41 µM

**Q.** And the TGI (SK-OV-3 ovarian)?
**A.** > 100 µM

**Q.** And the GI50 (SN12C renal)?
**A.** 27.9 µM

**Q.** What about the TGI (SN12C renal) of the same compound?
**A.** > 100 µM

**Q.** What about the GI50 (SNB-19 CNS) of the same compound?
**A.** 25.3 µM

**Q.** And the TGI (SNB-19 CNS)?
**A.** > 100 µM

**Q.** What about the GI50 (SNB-75 CNS) of the same compound?
**A.** 1.89 µM

**Q.** And the TGI (SNB-75 CNS)?
**A.** 40.8 µM

**Q.** And the GI50 (SR leukemia)?
**A.** 2.96 µM

**Q.** And the TGI (SR leukemia)?
**A.** > 100 µM

**Q.** And the GI50 (SW-620 colon)?
**A.** 11.2 µM

**Q.** And the TGI (SW-620 colon)?
**A.** > 100 µM

**Q.** And the GI50 (T-47D breast)?
**A.** 10.3 µM

**Q.** And the TGI (T-47D breast)?
**A.** > 100 µM

**Q.** And the GI50 (TK-10 renal)?
**A.** 35.9 µM

**Q.** What about the TGI (TK-10 renal) of the same compound?
**A.** > 100 µM

**Q.** What about the GI50 (U251 CNS) of the same compound?
**A.** 4.05 µM

**Q.** And the TGI (U251 CNS)?
**A.** > 100 µM

**Q.** What about the GI50 (UACC-257 melanoma) of the same compound?
**A.** 7.6 µM

**Q.** And the TGI (UACC-257 melanoma)?
**A.** > 100 µM

**Q.** What about the GI50 (UACC-62 melanoma) of the same compound?
**A.** 4.31 µM

**Q.** What about the TGI (UACC-62 melanoma) of the same compound?
**A.** 49.6 µM

**Q.** What about the GI50 (UO-31 renal) of the same compound?
**A.** 2.46 µM

**Q.** What about the TGI (UO-31 renal) of the same compound?
**A.** 5.78 µM
